How the values were obtained:
[1] = target: T1, JAK3 (Homo sapiens, UniProt P52333); assay: JAK Family Selectivity Assay: JAK3 vs JAK2 binding affinity; conditions: Kd JAK3 over Kd JAK2
T1 construct: made in house; host or cells: T7 phage in BL21-derived E. coli or HEK-293 cells
T1 sequence (P52333 1-1124): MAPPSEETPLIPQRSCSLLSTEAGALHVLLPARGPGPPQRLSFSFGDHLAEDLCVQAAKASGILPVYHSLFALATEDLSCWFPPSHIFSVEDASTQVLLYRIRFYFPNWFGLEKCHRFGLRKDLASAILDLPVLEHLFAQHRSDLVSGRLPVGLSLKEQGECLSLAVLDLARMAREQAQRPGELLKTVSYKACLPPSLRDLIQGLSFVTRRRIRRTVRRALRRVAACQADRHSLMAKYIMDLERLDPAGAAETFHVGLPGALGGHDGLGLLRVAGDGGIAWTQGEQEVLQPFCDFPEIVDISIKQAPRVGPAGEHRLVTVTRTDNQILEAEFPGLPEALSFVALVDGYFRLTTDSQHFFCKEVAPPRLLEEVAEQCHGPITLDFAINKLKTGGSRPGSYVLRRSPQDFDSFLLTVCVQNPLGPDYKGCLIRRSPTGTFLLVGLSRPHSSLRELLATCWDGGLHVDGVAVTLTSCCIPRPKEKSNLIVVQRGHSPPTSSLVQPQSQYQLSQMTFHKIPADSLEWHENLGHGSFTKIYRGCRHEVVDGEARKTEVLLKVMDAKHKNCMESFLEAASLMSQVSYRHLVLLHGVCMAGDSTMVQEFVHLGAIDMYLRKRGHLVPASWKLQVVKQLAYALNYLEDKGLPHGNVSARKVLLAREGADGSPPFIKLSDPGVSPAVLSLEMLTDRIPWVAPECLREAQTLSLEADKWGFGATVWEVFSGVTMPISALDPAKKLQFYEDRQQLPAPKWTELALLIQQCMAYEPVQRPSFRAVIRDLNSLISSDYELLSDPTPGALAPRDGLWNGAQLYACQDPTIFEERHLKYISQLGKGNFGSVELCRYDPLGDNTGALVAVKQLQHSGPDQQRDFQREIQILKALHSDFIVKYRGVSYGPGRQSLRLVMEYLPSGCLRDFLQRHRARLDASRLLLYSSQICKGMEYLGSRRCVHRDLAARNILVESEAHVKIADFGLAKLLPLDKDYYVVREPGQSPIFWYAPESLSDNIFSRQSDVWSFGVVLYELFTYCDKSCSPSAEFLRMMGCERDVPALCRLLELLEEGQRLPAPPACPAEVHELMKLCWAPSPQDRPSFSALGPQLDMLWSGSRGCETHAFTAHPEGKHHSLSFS
Method: (§1) Provided compounds are evaluated for selectivity by comparing their JAK2 binding affinity (Kd) in the above JAK2 Binding Assay with their binding affinity (Kd) for one or more other kinases. Binding affinity for other kinases is determined as follows: Kinase-tagged T7 phage strains are prepared in an E. coli host derived from the BL21 strain. E. coli are grown to log-phase and infected with T7 phage and incubated with shaking at 32° C. until lysis. The lysates are centrifuged and filtered to remove cell debris. The remaining kinases are produced in HEK-293 cells and subsequently tagged with DNA for qPCR detection. Streptavidin-coated magnetic beads are treated with biotinylated small molecule ligands for 30 minutes at room temperature to generate affinity resins for kinase assays. The liganded beads are blocked with excess biotin and washed with blocking buffer (SeaBlock (Pierce), 1% BSA, 0.05% Tween 20, 1 mM DTT) to remove unbound ligand and to reduce non-specific binding. Binding reactions are assembled by combining kinases, liganded affinity beads, and test compounds in 1× binding buffer (20% SeaBlock, 0.17×PBS, 0.05% Tween 20, 6 mM DTT). Test compounds are prepared as 111× stocks in 100% DMSO. Kds are determined using an 11-point 3-fold compound dilution series with three DMSO control points. All compounds for Kd measurements are distributed by acoustic transfer (non-contact dispensing) in 100% DMSO. The compounds are then diluted directly into the assays such that the final concentration of DMSO is 0.9%. All reactions are performed in polypropylene 384-well plate. Each has a final volume of 0.02 ml. The assay plates are incubated at room temperature with shaking for 1 hour and the affinity beads are washed with wash buffer (1×PBS, 0.05% Tween 20). The beads are then re-suspended in elution buffer (1× PBS, 0.05% Tween 20, 0.5 μM non-biotinylated affinity ligand) and incubated at room temperature with shaking for 30 minutes. The kinase concentration in the eluates is measured by qPCR. […] In some embodiments, provided compounds may be JAK2-selective over one or more of the following kinases: JAK1, JAK3, and Tyk2.

[2] = Hepatocyte Stability Assay, human hepatocytes; format: in vitro ADME; conditions: cryopreserved hepatocytes, read-out: Human Heps CLint
Method: 10 mM stock solutions of test compound and positive control are prepared in DMSO. Stock solutions are diluted to 100 μM by combining 198 μL of 50% acetonitrile/50% water and 2 μL of 10 mM stock solution. Verapamil is used as positive control in the assay. Vials of cryopreserved hepatocytes are thawed in a 37° C. water bath with gently shaking. The contents are poured into the 50 mL thawing medium conical tube. Vials are centrifuged at 100 g for 10 minutes at room temperature. Thawing medium is aspirated and hepatocytes are re-suspended with serum-free incubation medium to yield ˜1.5×10^6 cells/mL. Cell viability and density are counted using a Trypan Blue exclusion, and then cells are diluted with serum-free incubation medium to a working cell density of 0.5×10^6 viable cells/mL. A portion of the hepatocytes at 0.5×10^6 viable cells/mL are boiled for 5 min prior to adding to the plate as negative control to eliminate the enzymatic activity so that little or no substrate turnover should be observed. Aliquots of 198 μL hepatocytes are dispensed into each well of a 96-well non-coated plate. The plate is placed in the incubator for approximately 10 minutes. Aliquots of 2 μL of the 100 μM test compound and 2 μL positive control are added into respective wells of a non-coated 96-well plate to start the reaction. The final concentration of test compound is 1 μM. This assay is performed in duplicate. The plate is incubated in the incubator for the designed time points. 25 μL of contents are transferred and mixed with 6 volumes (150 μL) of cold acetonitrile with internal standard (100 nM alprazolam, 200 nM labetalol, 200 nM caffeine and 200 nM diclofenac) to terminate the reaction at time points of 0, 15, 30, 60, 90 and 120 minutes. Samples are centrifuged for 25 minutes at 3,220 g and aliquots of 150 μL of the supernatants are used for LC-MS/MS analysis.

[3] = target: T2, Tyk2 (Homo sapiens, UniProt P29597); assay: JAK Family Selectivity Assay: Tyk2 vs JAK2 binding affinity; conditions: Kd TYK2 over Kd JAK2
T2 construct: made in house; host or cells: T7 phage in BL21-derived E. coli or HEK-293 cells
T2 sequence (P29597 whole entry): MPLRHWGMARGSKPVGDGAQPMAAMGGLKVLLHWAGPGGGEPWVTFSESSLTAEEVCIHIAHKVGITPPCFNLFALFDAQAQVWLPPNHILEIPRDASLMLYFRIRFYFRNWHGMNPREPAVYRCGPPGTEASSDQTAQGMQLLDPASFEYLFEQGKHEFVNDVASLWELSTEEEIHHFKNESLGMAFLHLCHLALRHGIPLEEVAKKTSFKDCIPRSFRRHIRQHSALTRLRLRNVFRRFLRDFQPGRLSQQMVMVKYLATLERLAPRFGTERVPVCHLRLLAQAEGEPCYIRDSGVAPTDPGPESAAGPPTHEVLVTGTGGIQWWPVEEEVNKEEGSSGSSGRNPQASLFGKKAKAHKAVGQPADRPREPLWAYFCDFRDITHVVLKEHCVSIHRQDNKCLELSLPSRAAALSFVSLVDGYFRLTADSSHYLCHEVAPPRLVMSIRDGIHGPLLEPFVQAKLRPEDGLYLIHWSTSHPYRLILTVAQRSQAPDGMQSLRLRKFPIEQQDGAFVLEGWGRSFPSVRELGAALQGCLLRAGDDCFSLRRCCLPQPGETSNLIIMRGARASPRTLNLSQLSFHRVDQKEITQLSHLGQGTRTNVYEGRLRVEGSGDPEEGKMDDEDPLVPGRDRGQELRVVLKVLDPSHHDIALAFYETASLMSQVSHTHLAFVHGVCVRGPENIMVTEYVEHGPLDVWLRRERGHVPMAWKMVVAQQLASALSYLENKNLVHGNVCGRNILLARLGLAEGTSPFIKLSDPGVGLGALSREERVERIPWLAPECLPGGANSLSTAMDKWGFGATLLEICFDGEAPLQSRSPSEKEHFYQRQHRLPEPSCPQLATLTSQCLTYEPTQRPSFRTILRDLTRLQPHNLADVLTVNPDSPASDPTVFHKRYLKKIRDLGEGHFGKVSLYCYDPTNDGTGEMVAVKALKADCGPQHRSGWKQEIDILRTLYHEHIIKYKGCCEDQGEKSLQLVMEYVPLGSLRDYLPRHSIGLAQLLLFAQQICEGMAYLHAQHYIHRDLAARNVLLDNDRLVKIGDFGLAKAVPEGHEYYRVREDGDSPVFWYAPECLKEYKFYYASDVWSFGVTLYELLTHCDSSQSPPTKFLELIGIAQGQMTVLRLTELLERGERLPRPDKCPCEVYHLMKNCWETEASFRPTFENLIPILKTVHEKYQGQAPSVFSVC
Method: as §1

Compound | JAK3/JAK2 Kd/Kd ratio [1] | CLint scaled at 1 μM [2] | TYK2/JAK2 Kd/Kd ratio [3]
Cn1cc(C(F)(F)F)cc(Nc2nc3ncc(Oc4ccnc(NC(=O)O[C@@H]5CCOC5)c4)c(C#N)c3n2C)c1=O [Example I-18, (R)-Tetrahydrofuran-3-yl(4-((7-cyano-1-methyl-2-((1-methyl-2-oxo-5-(trifluoromethyl)-1,2-dihydropyridin-3-yl)amino)-1H-imidazo[4,5-b]pyridin-6-yl)oxy)pyridin-2-yl)carbamate] | A (Kd/Kd ratio ≥1000) | 6 to 12 mL/min/kg | C (Kd/Kd ratio <300 and ≥100)
CO[C@@H]1CCN(C(=O)Nc2cc(Oc3cnc4nc(Nc5cc6n(n5)CCC65CCC5)n(C)c4c3C#N)ccn2)C1 [Example I-60, (R)-N-(4-((7-cyano-2-((5′,6′-dihydrospiro[cyclobutane-1,4′-pyrrolo[1,2-b]pyrazol]-2′-yl)amino)-1-methyl-1H-imidazo[4,5-b]pyridin-6-yl)oxy)pyridin-2-yl)-3-methoxypyrrolidine-1-carboxamide] | B (Kd/Kd ratio <1000 and ≥300) | 6 to 12 mL/min/kg | D (Kd/Kd ratio <100)
COC1CN(C(=O)Nc2cc(Oc3cnc4nc(Nc5cc6n(n5)CCC65CCC5)n(C)c4c3C#N)ccn2)C1 [Example I-61, N-(4-((7-cyano-2-((5′,6′-dihydrospiro[cyclobutane-1,4′-pyrrolo[1,2-b]pyrazol]-2′-yl)amino)-1-methyl-1H-imidazo[4,5-b]pyridin-6-yl)oxy)pyridin-2-yl)-3-methoxyazetidine carboxamide] | A (Kd/Kd ratio ≥1000) | ≤ 6 mL/min/kg | D (Kd/Kd ratio <100)
COCCOC(=O)Nc1cc(Oc2cnc3nc(Nc4cc5n(n4)CCC54CCC4)n(C)c3c2C#N)ccn1 [Example I-62, 2-methoxyethyl(4-((7-cyano-2-((5′,6′-dihydrospiro[cyclobutane-1,4′-pyrrolo[1,2-b]pyrazol]-2′-yl)amino)-1-methyl-1H-imidazo[4,5-b]pyridin-6-yl)oxy)pyridin-2-yl)carbamate] | A (Kd/Kd ratio ≥1000) | 6 to 12 mL/min/kg | C (Kd/Kd ratio <300 and ≥100)
COCC(=O)Nc1cc(Oc2cnc3nc(Nc4cc(C(F)(F)F)cn(C)c4=O)n(C)c3c2Cl)ccn1 [Example I-75, N-(4-((7-chloro-1-methyl-2-((1-methyl-2-oxo-5-(trifluoromethyl)-1,2-dihydropyridin-3-yl)amino)-1H-imidazo[4,5-b]pyridin-6-yl)oxy)pyridin-2-yl)-2-methoxyacetamide] | A (Kd/Kd ratio ≥1000) | 12 to 20 mL/min/kg | C (Kd/Kd ratio <300 and ≥100)
COCC(=O)Nc1cc(Oc2cnc3nc(Nc4cc(C(F)(F)F)cn(C)c4=O)n(C)c3c2C#N)ccn1 [Example I-79, N-(4-((7-cyano-1-methyl-2-((1-methyl-2-oxo-5-(trifluoromethyl)-1,2-dihydropyridin-3-yl)amino)-1H-imidazo[4,5-b]pyridin-6-yl)oxy)pyridin-2-yl)-2-methoxyacetamide] | A (Kd/Kd ratio ≥1000) | 12 to 20 mL/min/kg | C (Kd/Kd ratio <300 and ≥100)
CC(=O)Nc1cc(Oc2cnc3nc(Nc4cc(C(F)(F)F)cn(C)c4=O)n(C)c3c2Cl)c(F)cn1 [Example I-88, N-(4-((7-chloro-1-methyl-2-((1-methyl-2-oxo-5-(trifluoromethyl)-1,2-dihydropyridin-3-yl)amino)-1H-imidazo[4,5-b]pyridin-6-yl)oxy)-5-fluoropyridin-2-yl)acetamide] | A (Kd/Kd ratio ≥1000) | 12 to 20 mL/min/kg | D (Kd/Kd ratio <100)
Cn1c(Nc2cc3n(n2)CCC32CCC2)nc2ncc(Oc3ccnc(NC(=O)C4CC4)c3)c(C#N)c21 [Example I-122, N-(4-((7-cyano-2-((5′,6′-dihydrospiro[cyclobutane-1,4′-pyrrolo[1,2-b]pyrazol]-2′-yl)amino)-1-methyl-1H-imidazo[4,5-b]pyridin-6-yl)oxy)pyridin-2-yl)cyclopropanecarboxamide] | B (Kd/Kd ratio <1000 and ≥300) | 12 to 20 mL/min/kg | D (Kd/Kd ratio <100)
CCN1CCN(Cc2ccc(Nc3nc4ccc(Oc5ccnc(NC(C)=O)c5)cc4n3C)cc2C(F)(F)F)CC1 [Example R-1, reference compound] | A (Kd/Kd ratio ≥1000) | 12 to 20 mL/min/kg | C (Kd/Kd ratio <300 and ≥100)

— patent publication US11970494B2, “6-heteroaryloxy benzimidazoles and azabenzimidazoles as JAK2 inhibitors” (Ajax Therapeutics, Inc., priority 2021, dated 2024)
